Measurements from ChEMBL document CHEMBL1201862, “PubChem BioAssay data set” (2004).
Active and inactive are the calls of the source. The rule behind the calls is not given here.

Key:
Exodeoxyribonuclease V = target: T1, Exodeoxyribonuclease V (Escherichia coli (strain K12), UniProt P04993+P07648+P08394); assay: E. coli RecBCD inhibitors, dose response, counter-screen for AddAB inhibitor project, absorbance, V66 E. coli, mutant T4 phage (AID 492957); format: functional, cell-based, Escherichia coli str. K-12 substr. MG1655
T1 sequence (P04993 whole entry): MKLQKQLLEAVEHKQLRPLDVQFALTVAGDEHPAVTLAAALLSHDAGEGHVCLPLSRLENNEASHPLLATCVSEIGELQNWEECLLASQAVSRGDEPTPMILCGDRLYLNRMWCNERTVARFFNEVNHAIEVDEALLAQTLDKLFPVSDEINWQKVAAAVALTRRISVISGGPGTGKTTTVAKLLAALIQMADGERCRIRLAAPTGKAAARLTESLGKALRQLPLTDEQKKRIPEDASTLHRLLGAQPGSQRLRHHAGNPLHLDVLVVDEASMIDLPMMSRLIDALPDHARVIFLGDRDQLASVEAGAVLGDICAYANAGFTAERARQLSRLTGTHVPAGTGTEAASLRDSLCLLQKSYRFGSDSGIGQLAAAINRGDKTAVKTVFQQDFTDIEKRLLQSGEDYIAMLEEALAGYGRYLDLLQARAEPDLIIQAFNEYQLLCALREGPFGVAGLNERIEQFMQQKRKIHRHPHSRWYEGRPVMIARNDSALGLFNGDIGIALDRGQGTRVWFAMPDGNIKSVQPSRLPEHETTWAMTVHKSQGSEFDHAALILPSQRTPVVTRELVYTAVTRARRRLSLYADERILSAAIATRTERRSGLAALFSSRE
T1 sequence (P07648 whole entry): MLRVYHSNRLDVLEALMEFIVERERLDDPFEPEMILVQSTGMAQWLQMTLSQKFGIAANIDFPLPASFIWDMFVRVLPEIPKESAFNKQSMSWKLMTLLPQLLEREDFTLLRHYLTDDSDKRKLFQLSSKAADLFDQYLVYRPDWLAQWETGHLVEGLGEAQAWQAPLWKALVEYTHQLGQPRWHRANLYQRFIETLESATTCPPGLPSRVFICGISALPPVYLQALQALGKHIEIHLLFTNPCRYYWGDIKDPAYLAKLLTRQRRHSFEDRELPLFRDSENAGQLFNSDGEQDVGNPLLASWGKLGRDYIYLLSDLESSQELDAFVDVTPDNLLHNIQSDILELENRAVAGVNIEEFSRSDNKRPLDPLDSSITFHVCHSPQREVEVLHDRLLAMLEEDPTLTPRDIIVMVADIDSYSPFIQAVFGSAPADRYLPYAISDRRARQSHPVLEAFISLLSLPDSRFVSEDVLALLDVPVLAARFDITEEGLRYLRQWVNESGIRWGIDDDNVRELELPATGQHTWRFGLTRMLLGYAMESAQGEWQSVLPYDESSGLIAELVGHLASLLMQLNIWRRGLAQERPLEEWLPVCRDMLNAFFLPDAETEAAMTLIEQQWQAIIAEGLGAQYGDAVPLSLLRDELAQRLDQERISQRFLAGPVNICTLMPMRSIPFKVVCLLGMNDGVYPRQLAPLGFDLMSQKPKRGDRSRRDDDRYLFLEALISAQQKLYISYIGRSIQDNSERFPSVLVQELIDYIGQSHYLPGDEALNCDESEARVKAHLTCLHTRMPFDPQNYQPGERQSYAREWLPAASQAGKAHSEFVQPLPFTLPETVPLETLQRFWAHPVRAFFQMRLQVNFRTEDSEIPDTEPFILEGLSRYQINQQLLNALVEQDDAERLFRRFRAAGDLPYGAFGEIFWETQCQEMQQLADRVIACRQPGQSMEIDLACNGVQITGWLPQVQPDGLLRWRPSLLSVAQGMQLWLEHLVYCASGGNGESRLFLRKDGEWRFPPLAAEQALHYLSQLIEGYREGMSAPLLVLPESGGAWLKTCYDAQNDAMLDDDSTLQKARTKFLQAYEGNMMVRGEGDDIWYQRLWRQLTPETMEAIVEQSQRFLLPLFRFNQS
T1 sequence (P08394 whole entry): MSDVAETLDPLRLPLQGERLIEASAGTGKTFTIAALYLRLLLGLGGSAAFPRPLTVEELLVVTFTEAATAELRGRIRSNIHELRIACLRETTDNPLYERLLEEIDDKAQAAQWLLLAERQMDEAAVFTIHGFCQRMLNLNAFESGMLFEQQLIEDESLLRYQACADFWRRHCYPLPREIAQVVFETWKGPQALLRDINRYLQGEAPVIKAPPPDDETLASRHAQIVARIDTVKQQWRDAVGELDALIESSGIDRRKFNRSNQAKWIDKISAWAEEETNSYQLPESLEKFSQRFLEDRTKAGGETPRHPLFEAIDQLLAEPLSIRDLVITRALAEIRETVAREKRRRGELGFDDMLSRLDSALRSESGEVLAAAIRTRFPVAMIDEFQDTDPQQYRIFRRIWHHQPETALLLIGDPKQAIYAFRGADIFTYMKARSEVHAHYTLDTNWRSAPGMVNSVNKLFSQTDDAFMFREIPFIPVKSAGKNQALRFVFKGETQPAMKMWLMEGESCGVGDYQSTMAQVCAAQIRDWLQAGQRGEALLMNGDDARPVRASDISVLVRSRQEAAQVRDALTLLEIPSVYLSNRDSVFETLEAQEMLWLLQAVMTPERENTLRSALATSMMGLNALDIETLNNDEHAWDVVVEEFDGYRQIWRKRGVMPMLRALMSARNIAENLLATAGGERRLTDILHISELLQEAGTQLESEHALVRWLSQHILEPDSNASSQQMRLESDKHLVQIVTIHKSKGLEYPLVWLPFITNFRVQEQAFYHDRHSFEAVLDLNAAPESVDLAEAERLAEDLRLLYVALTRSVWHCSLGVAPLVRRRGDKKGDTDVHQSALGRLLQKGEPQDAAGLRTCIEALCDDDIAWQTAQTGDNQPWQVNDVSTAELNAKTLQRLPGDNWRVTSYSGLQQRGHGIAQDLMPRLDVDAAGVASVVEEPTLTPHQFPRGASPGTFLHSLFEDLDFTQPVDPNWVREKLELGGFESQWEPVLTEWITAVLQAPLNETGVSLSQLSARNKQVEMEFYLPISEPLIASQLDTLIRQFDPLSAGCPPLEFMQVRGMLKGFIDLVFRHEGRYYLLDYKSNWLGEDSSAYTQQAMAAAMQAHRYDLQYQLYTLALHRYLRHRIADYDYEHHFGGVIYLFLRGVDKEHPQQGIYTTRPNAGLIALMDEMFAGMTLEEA

[1] = Counterscreen for AddAB inhibitors: absorbance-based bacterial cell-based high throughput dose response assay for inhibitors of bacterial viability. [Related pubchem assays (depositor defined):AID435030, AID449728, AID449731, AID488942, AID488955, AID488956]; format: functional
[2] = target: Latent membrane protein 1 (Human herpesvirus 4 (strain B95-8), UniProt P03230); assay: TES1-eGFP NF-kB reporter inhibition versus Tet-On dsRED, dose response, selectivity assay for LMP1 NF-kB inhibitor project, imaging, HEK293T, dual-color eGFP/dsRED, cherry-picks (AID 588398); format: functional, cell-based
Latent membrane protein 1, sequence (P03230 whole entry): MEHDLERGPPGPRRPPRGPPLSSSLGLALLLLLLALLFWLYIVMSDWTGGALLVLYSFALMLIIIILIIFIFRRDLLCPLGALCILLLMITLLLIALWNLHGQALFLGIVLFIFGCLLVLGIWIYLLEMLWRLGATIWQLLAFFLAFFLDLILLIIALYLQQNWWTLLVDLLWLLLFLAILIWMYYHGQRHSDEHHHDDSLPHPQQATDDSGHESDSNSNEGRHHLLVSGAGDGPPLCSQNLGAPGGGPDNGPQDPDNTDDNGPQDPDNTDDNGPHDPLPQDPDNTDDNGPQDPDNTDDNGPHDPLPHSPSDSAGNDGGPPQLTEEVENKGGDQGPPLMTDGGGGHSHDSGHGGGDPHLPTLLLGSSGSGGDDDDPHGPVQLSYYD

Structure (SMILES) | IC50 (Exodeoxyribonuclease V) | IC50 [1] | AC50 [2]
Cc1onc(-c2ccccc2)c1C(=O)NC(=S)NNC(=O)c1ccc(O)cc1O | > 39.5 µM (inactive) | > 39.5 µM (inactive) | 1.15 µM (active)
O=C(N/N=C/c1ccc(O)cc1O)C(=O)N/N=C/c1ccc(O)cc1O | > 119 µM (inactive) | > 119 µM (inactive) | 
